pIC50: −log10 of the molar value.

For the assay, the target named is T1, squalene synthase (Rattus norvegicus, UniProt Q02769).
T1 construct: incubating rat liver homogenate with various concentrations of the test compound; from tissue; host or cells: rat liver homogenate
T1 sequence (Q02769 1-416): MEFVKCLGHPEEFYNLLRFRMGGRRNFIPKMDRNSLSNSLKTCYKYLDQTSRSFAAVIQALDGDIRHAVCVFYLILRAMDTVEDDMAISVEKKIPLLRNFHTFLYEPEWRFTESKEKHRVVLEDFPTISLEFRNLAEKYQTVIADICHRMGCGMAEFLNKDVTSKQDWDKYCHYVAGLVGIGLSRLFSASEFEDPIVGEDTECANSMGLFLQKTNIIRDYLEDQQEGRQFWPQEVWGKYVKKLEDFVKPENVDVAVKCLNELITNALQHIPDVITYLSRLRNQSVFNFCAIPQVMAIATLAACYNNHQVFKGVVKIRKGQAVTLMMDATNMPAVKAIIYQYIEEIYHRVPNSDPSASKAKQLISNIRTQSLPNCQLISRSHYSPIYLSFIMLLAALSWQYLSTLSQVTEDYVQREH
As to the kind of experiment: Inhibition of squalene synthase in rat liver homogenate with [2-14C]farnesylpyrophosphate as substrate. Format: biochemical. The note with it: 50% inhibition of [14C]squalene production in a 30 minute assay, read-out: IC₅₀. The procedure: Acta, Volume 877, 50-60 (1986) and modified to include measurement of cholesterol by high performance liquid chromatography (h.p.l.c.).
[¹⁴C] Squalene was separated from unreacted substrate on thin layer chromatography plates and determined by liquid scintillation counting. Inhibition of squalene synthase was quantified by incubating rat liver homogenate with various concentrations of the test compound in the presence of [2-¹⁴C] farnesylpyrophosphate. The concentration of compound giving 50% inhibition of [¹⁴C] squalene production in a 30 minute assay was taken as the IC₅₀ value.

As to `C=C(CC[C@]12O[C@H](C(=O)O)[C@@](O)(C(=O)O)[C@](C(=O)O)(O1)[C@H](OC(=O)/C=C/[C@@H](C)C[C@@H](C)CC)[C@H]2O)[C@@H](OC(C)=O)[C@H](C)Cc1ccc(F)cc1` (relative stereo) [Example 1(a), [1S-[1α(4R*,5S*),3α,4β,5α,6α(2E,4R*,6R*),7β]] 1-[4-Acetoxy-6-(4-fluorophenyl)-5-methyl-3-methylenehexyll-4,6,7-trihydroxy-2,8-dioxabicyclo[3.2.1]octane-3,4,5-tricarboxylic acid, 6-(4,6-dimethyl-2-octenoate)], the pIC50 is above 7.00.
In the case of `C=C(CC[C@]12O[C@H](C(=O)O)[C@@](O)(C(=O)O)[C@](C(=O)O)(O1)[C@H](OC(=O)/C=C/[C@@H](C)C[C@@H](C)CC)[C@H]2O)[C@@H](OC(C)=O)[C@H](C)Cc1cccc(F)c1` (relative stereo) [Example 1(b), [1S-[1α(4R*,5S*),3α,4β,5α,6α(2E,4R*,6R*),7β]] 1-[4-Acetoxy-6-(3-fluorophenyl)-5-methyl-3-methylenehexyl]-4,6,7-trihydroxy-2,8-dioxabicyclo[3.2.1]octane-3,4,5-tricarboxylic acid, 6-(4,6-dimethyl-2-octenoate)] it was above 7.00; in that of `C=C(CC[C@]12O[C@H](C(=O)O)[C@@](O)(C(=O)O)[C@](C(=O)O)(O1)[C@H](OC(=O)/C=C/[C@@H](C)C[C@@H](C)CC)[C@H]2O)[C@@H](OC(C)=O)[C@H](C)Cc1ccccc1F` (relative stereo) [Example 1(c), [1S-[1α(4R*,5S*),3α,4β,5α,6α(2E,4R*,6R*),7β]] 1-[4-Acetoxy-6-(2-fluorophenyl)-5-methyl-3-methylenehexyl]-4,6,7-trihydroxy-2,8-dioxabicyclo[3.2.1]octane-3,4,5-tricarboxylic acid, 6-(4,6-dimethyl-2-octenoate)], above 7.00.
